{
  "source": "patent US20120040991A1",
  "about": "“3-AZABICYCLO [4.1.0] HEPTANES USED AS OREXIN ANTAGONISTS” (Glaxo Group Limited, priority 2009, published 2012)",
  "target": "T1, human cloned orexin-2 receptor (Homo sapiens, UniProt O43614)",
  "T1 construct": "expressed in transfected cells",
  "T1 sequence (O43614 1-444)": "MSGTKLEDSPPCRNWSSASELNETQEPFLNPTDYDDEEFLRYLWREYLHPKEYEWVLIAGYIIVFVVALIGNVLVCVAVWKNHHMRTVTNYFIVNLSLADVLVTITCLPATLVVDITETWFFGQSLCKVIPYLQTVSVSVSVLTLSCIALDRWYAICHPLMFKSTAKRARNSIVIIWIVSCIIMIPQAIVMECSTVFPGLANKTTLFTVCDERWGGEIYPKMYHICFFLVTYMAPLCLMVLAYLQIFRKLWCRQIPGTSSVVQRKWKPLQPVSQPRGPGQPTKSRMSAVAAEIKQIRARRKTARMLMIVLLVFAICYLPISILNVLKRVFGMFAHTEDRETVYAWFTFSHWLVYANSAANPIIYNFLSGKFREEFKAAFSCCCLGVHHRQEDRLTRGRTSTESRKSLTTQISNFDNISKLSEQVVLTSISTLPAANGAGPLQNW",
  "assay": "Determination of antagonist affinity at human Orexin-2 receptor using FLIPR ([Ca2+]i, CHO cells, hOrexin A at EC80)",
  "assay_type": "cell-based",
  "details": "functional pKi from IC50 by modified Cheng-Prusoff, read-out: fpKi",
  "text": "Determination of Antagonist Affinity at Human Orexin-1 and 2 Receptors Using FLIPR\nAdherent Chinese Hamster Ovary (CHO) cells, stably expressing the recombinant human Orexin-1 or human Orexin-2 receptors or Rat Basophilic Leukaemia Cells (RBL) stably expressing recombinant rat Orexin-1 or rat Orexin-2 receptors were maintained in culture in Alpha Minimum Essential Medium (Gibco/Invitrogen, cat. no.; 22571-020), supplemented with 10% decomplemented foetal bovine serum (Life Technologies, cat. no. 10106-078) and 400 μg/mL Geneticin G418 (Calbiochem, cat. no. 345810). Cells were grown as monolayers under 95%:5% air:CO2 at 37° C. […]\nCompounds of the invention were tested in a final assay concentration range from 1.66×10^−5M to 1.58×10^−11M. […] This final concentration of hOrexin A was equivalent to the calculated EC80 for hOrexinA agonist potency in this test system. […]\nThe loaded cells were then incubated for 10 min at 37° C. with test compound. The plates were then placed into a FLIPR™ (Molecular Devices, UK) to monitor cell fluorescence (λex=488 nm, λEM=540 nm) (Sullivan E, Tucker E M, Dale I L. Measurement of [Ca^2]i using the fluometric imaging plate reader (FLIPR). In: Lambert DG (ed.), Calcium Signaling Protocols. New Jersey: Humana Press, 1999, 125-136). A baseline fluorescence reading was taken over a 5 to 10 second period, and then 10 μL of EC80 hOrexinA solution was added. […]",
  "note": "pKi: −log10 of the molar value.",
  "data": [
    {"compound": "CCOc1ccc(C)nc1C(=O)N1C[C@@H]2C[C@@H]2C[C@H]1COc1ncc(C(F)(F)F)cn1", "note": "[Example E4, (1R,4S,6R)-3-{[3-(ethyloxy)-6-methyl-2-pyridinyl]carbonyl}-4-({[5-(trifluoromethyl)-2-pyrimidinyl]oxy}methyl)-3-azabicyclo[4.1.0]heptane]", "values": [
      {"measurement": "pKi", "result": "< 4.80"}
    ]}
  ]
}
